The target of data set [1] is T1, Proteasome component C5 (Homo sapiens) (UniProt P20618).
T1 sequence (whole entry): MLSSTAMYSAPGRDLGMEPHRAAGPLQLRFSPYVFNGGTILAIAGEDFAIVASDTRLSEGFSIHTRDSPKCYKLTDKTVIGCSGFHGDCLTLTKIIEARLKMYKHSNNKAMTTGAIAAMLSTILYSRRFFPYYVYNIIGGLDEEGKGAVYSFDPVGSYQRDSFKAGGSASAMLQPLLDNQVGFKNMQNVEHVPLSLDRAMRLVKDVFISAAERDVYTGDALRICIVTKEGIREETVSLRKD
Briefly: Inhibition of postacid activity of 20s proteasome beta-1 subunit in HEK293 cells using Z-nLPnLD-Glo as substrate at 10 uM incubated for 2 hrs prior to substrate addition measured after 10 mins by cell-based proteasome-Glo beta1 assay.

Data set [2] concerns the target Cathepsin B (Homo sapiens) (UniProt P07858). Briefly: Inhibition of human cathepsin B using Suc-LLVY-AMC as substrate assessed as remaining enzyme activity at 20 uM incubated for 15 mins prior to substrate addition measured for 30 mins by fluorescence assay.
The target of data set [3] is T2, Proteasome Macropain subunit MB1 (Homo sapiens, UniProt P28074).
T2 sequence (P28074 whole entry): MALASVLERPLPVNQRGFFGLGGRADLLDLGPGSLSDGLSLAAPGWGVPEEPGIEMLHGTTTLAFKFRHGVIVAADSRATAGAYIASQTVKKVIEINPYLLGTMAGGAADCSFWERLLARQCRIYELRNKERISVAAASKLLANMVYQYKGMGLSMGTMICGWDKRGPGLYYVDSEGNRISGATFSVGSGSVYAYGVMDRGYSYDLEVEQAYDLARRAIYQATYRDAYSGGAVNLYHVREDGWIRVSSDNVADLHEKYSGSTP
Description: Inhibition of chymotrypsin-like activity of proteasome beta-5 subunit in HEK293 cells using Suc-LLVY-Glo as substrate incubated for 2 hrs prior to substrate addition measured after 10 mins by cell-based proteasome-Glo beta5 assay

Data set [4] concerns the target T2, Proteasome Macropain subunit MB1. The source holds these as a separate data set.
Description: Competitive inhibition of chymotrypsin-like activity of human constitutive 20s proteasome beta-5 subunit using Suc-LLVY-AMC as substrate assessed as inhibition constant for dissociation of enzyme-inhibitor complex incubated for 15 mins prior to substrate addition measured after 45 mins by fluorescence assay
For data set [5] the target is unchanged. This is another data set of the same source.
Description: (§1) Inhibition of chymotrypsin-like activity of human constitutive 20s proteasome beta-5 subunit using Suc-LLVY-AMC as substrate assessed as remaining activity incubated for 15 mins prior to substrate addition measured after 45 mins by fluorescence assay
The target in data set [6] is T3, Calpain-1 catalytic subunit (Homo sapiens) (UniProt P07384).
T3 sequence (whole entry): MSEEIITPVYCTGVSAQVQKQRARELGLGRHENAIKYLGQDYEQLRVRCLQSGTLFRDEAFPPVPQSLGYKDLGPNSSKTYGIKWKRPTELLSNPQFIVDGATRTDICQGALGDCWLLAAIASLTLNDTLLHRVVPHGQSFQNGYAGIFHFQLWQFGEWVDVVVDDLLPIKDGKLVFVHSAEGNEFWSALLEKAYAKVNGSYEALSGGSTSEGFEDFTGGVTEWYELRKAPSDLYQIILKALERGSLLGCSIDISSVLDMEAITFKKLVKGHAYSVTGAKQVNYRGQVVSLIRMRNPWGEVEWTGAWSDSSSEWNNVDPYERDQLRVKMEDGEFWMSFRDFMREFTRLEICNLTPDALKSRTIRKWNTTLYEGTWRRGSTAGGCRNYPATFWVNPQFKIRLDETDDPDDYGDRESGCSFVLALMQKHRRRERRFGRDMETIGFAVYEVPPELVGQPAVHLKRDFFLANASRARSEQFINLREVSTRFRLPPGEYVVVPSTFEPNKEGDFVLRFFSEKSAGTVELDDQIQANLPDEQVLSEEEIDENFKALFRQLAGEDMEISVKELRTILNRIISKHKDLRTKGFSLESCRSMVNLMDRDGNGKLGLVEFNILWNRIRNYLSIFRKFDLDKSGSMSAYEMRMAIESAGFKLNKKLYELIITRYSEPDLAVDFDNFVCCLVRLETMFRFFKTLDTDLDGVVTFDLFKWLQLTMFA
Briefly: Inhibition of human calpain 1 using Suc-LLVY-AMC as substrate assessed as remaining enzyme activity at 20 uM incubated for 5 mins prior to substrate addition measured for 30 mins by fluorescence assay.

Data set [7] deals with T2, Proteasome Macropain subunit MB1. Briefly: Mixed type inhibition of chymotrypsin-like activity of human constitutive 20s proteasome beta-5 subunit using Suc-LLVY-AMC as substrate assessed as inhibition constant for dissociation of enzyme-inhibitor complex incubated for 15 mins prior to substrate addition measured after 45 mins by fluorescence assay.
Data set [8] has the same target. Briefly: Mixed type inhibition of chymotrypsin-like activity of human constitutive 20s proteasome beta-5 subunit using Suc-LLVY-AMC as substrate assessed as inhibition constant for dissociation of enzyme-substrate-inhibitor complex incubated for 15 mins prior to substrate addition measured after 45 mins by fluorescence assay.
Data set [9] shares this target. The source holds these as a separate data set.
Description: as §1
Data set [10] addresses T4, Proteasome component C5 (Homo sapiens, UniProt P20618).
T4 sequence (P20618 whole entry): T1 sequence (whole entry)
Description: Inhibition of postacid activity of human constitutive 20s proteasome beta-1 subunit using Z-LLE-betaNA as substrate assessed as remaining activity incubated for 15 mins prior to substrate addition measured after 45 mins by fluorescence assay

The target of data set [11] is Proteasome Macropain subunit (Homo sapiens, UniProt P49721). Briefly: Inhibition of trypsin-like activity of human constitutive 20s proteasome beta-2 subunit using Boc-LRR-AMC as substrate assessed as remaining activity incubated for 15 mins prior to substrate addition measured after 45 mins by fluorescence assay.
Data set [12] is described as follows: Half life of the compound in RPMI culture medium in presence of 20% fetal calf serum at 37 degC by HPLC analysis. The format is physicochemical. Conditions: cattle, RPMI culture medium with 20% fetal calf serum.
Data set [13] addresses T5, Proteasome Macropain subunit PRE2 (Saccharomyces cerevisiae S288c, UniProt P30656).
T5 sequence (P30656 whole entry): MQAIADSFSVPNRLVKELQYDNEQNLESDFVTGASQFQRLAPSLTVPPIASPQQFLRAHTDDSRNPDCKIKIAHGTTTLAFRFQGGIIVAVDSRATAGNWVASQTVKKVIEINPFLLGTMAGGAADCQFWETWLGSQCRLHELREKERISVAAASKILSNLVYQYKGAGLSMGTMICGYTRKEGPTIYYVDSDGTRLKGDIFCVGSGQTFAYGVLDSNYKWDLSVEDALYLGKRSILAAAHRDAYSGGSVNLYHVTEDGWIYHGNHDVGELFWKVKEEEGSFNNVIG
Description: Inhibition of chymotrypsin-like activity of yeast 20S proteasome beta-5 subunit using Suc-LLVY-AMC as substrate measured up to 45 mins by fluorescence assay

Data set [14] concerns the target T1, Proteasome component C5 (Homo sapiens). Briefly: Inhibition of postacid activity of 20s proteasome beta-1 subunit in HEK293 cells using Z-nLPnLD-Glo as substrate at 20 uM incubated for 2 hrs prior to substrate addition measured after 10 mins by cell-based proteasome-Glo beta1 assay.

Activity calls are given as the source filed them.

Sequence of Proteasome Macropain subunit (P49721 whole entry): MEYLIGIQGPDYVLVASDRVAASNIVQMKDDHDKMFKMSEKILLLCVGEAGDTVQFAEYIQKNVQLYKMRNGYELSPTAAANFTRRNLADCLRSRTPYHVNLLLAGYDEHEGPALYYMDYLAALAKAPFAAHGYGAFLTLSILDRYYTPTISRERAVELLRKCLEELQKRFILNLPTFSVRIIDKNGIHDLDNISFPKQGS

One may read the inhibition as the percentage by which the read-out fell short of the control. As usually defined, the IC50 is the concentration that inhibits the measured activity by half. For orientation: Ki means the equilibrium dissociation constant of an inhibitor or competing ligand from its target. In data set [1], `C[C@H](NC(=O)[C@H](Cc1ccc(OCc2ccccc2)cc1)NC(=O)CCCCCNC(=O)CCCCCNC(=O)CCCCCNC(=O)CCCCC(=O)NCCCCCC(=O)NCCCCCC(=O)NCCCCCC(=O)N[C@@H](Cc1ccc(OCc2ccccc2)cc1)C(=O)N[C@@H](C)C(=O)N[C@@H](C[C@]1(O)C(=O)Nc2ccccc21)C(=O)NCc1ccccc1)C(=O)N[C@@H](C[C@]1(O)C(=O)Nc2ccccc21)C(=O)NCc1ccccc1` yielded an inhibition of 30%. For the same compound, the inhibition entry in data set [2] and in data set [6] was “inactive” throughout. Moreover, the values for the IC50 in data set [3] and in data set [5] were 476 nM and 19.1 nM, respectively. In data set [4], this compound yielded a Ki of 10.6 nM.
On to `C[C@H](NC(=O)[C@H](Cc1ccc(OCc2ccccc2)cc1)NC(=O)CCCCCNC(=O)CCCCCNC(=O)CCCCCNC(=O)CCCCCNC(=O)CCCCC(=O)NCCCCCC(=O)NCCCCCC(=O)NCCCCCC(=O)NCCCCCC(=O)N[C@@H](Cc1ccc(OCc2ccccc2)cc1)C(=O)N[C@@H](C)C(=O)N[C@@H](C[C@]1(O)C(=O)Nc2ccccc21)C(=O)NCc1ccccc1)C(=O)N[C@@H](C[C@]1(O)C(=O)Nc2ccccc21)C(=O)NCc1ccccc1`, for which the inhibition result in data set [2] and in [6] was “inactive” in each case. In addition, in data set [4], the affinity, expressed as Ki, was 6 nM. The compound further displayed an IC50 in data set [5] of 20 nM.
Take `C/C=C\NC(=O)[C@H]1NC(=O)[C@H](CC(N)=O)CC(=O)[C@@H](NC(=O)C(=O)[C@@H](C)CC)Cc2ccc(O)c(c2)-c2cccc3c2NC(=O)[C@@]3(O)[C@@H]1O`: the Ki in [4] amounted to 2.3 nM. Besides, in data set [5], the IC50 amounted to 5.4 nM.
As to `C[C@H](NC(=O)[C@H](Cc1ccc(OCc2ccccc2)cc1)NC(=O)CCCCCNC(=O)CCCCCNC(=O)CCCCCNC(=O)CCCCCNC(=O)OC(C)(C)C)C(=O)N[C@@H](C[C@]1(O)C(=O)Nc2ccccc21)C(=O)NCc1ccccc1`, the inhibition result in [2] and in data set [6] was “inactive” in each case. In addition, the Ki in [7] came out at 67 nM; in data set [8], 200 nM. Half-maximal inhibition in data set [5] (IC50) required 707 nM.
Take `COC(=O)CCCCCNC(=O)CCCCCNC(=O)CCCCCNC(=O)CCCCCNC(=O)CCCCCNC(=O)CCCCCNC(=O)OC(C)(C)C`: the inhibition result in [2] and in [6] was “inactive” throughout. Also, the IC50 result in [9], in data set [10] and in [11] was “Not Active” each time.
As usually defined, the half-life is the time needed for the level to fall by half in the phase considered. As for `C[C@H](NC(=O)[C@H](Cc1ccc(OCc2ccccc2)cc1)NC(=O)OC(C)(C)C)C(=O)N[C@@H](C[C@]1(O)C(=O)Nc2ccccc21)C(=O)NCc1ccccc1`, the inhibition result in data set [2] and in data set [6] was “inactive” throughout. The half-life in data set [12] was 50 h. Moreover, the IC50 in data set [3] came to 7970 nM; in data set [13], 1500 nM; in data set [5], 3190 nM. In addition, the Ki in [7] amounted to 2430 nM; in [8], 5030 nM.
The compound `C[C@H](NC(=O)[C@H](Cc1ccc(OCc2ccccc2)cc1)NC(=O)CCCCCNC(=O)CCCCCNC(=O)CCCCCNC(=O)CCCCCNC(=O)CCCCCNC(=O)CCCCC(=O)N[C@@H](Cc1ccc(OCc2ccccc2)cc1)C(=O)N[C@@H](C)C(=O)N[C@@H](C[C@]1(O)C(=O)Nc2ccccc21)C(=O)NCc1ccccc1)C(=O)N[C@@H](C[C@]1(O)C(=O)Nc2ccccc21)C(=O)NCc1ccccc1` had an inhibition in [1] of 25%. For the same compound, the inhibition result in [2] and in data set [6] was “inactive” in each case. Further, the results for the IC50 in data set [3] and in [5] were 472 nM and 22.7 nM, respectively. Moreover, in [4], the Ki was found to be 11.4 nM.
For the compound `C[C@H](NC(=O)[C@H](Cc1ccc(OCc2ccccc2)cc1)NC(=O)CCCCCNC(=O)CCCCCNC(=O)CCCCCNC(=O)OC(C)(C)C)C(=O)N[C@@H](C[C@]1(O)C(=O)Nc2ccccc21)C(=O)NCc1ccccc1`, the inhibition result in data set [2] and in [6] was “inactive” each time. Besides, in data set [12], the half-life was 19 h. Moreover, the IC50 in data set [3] was determined as 252 nM; in data set [5], 460 nM. Also, the Ki in [7] worked out at 101 nM; in data set [8] it was 316 nM.
With `C[C@H](NC(=O)[C@H](Cc1ccc(OCc2ccccc2)cc1)NC(=O)CCCCCNC(=O)CCCCCNC(=O)CCCCCNC(=O)CCCCC(=O)N[C@@H](Cc1ccc(OCc2ccccc2)cc1)C(=O)N[C@@H](C)C(=O)N[C@@H](C[C@]1(O)C(=O)Nc2ccccc21)C(=O)NCc1ccccc1)C(=O)N[C@@H](C[C@]1(O)C(=O)Nc2ccccc21)C(=O)NCc1ccccc1`, the inhibition result in data set [2] and in [6] was “inactive” each time. Moreover, the half-life in data set [12] is 50 h. For the same compound, the IC50 in data set [3] was determined as 541 nM; in data set [5] it was 25.8 nM. This compound also yielded a Ki in [4] of 10.3 nM. In [14], this compound came in with an inhibition of 40%.
Take `COC(=O)CCCCCNC(=O)CCCCCNC(=O)CCCCCNC(=O)CCCCC(=O)OC`: the inhibition result in [2] and in data set [6] was “inactive” throughout. For the same compound, the IC50 result in data set [9], in data set [10] and in data set [11] was “Not Active” in each case.
In data set [1], `C[C@H](NC(=O)[C@H](Cc1ccc(OCc2ccccc2)cc1)NC(=O)CCCCCNC(=O)CCCCCNC(=O)CCCCCNC(=O)CCCCCNC(=O)CCCCC(=O)N[C@@H](Cc1ccc(OCc2ccccc2)cc1)C(=O)N[C@@H](C)C(=O)N[C@@H](C[C@]1(O)C(=O)Nc2ccccc21)C(=O)NCc1ccccc1)C(=O)N[C@@H](C[C@]1(O)C(=O)Nc2ccccc21)C(=O)NCc1ccccc1` came in with an inhibition of 37%. The inhibition entry in [2] and in data set [6] was “inactive” each time. The values for the IC50 in data set [3] and in [5] were 756 nM and 25.9 nM, respectively. The compound further returned a Ki in [4] of 10.8 nM.

Values taken from ChEMBL document CHEMBL2331312, “Dimerized linear mimics of a natural cyclopeptide (TMC-95A) are potent noncovalent inhibitors of the eukaryotic 20S proteasome” (J Med Chem, 2013).
